Measured values from ChEMBL document CHEMBL3868621, “A novel adamantane thiadiazole derivative induces mitochondria-mediated apoptosis in lung carcinoma cell line” (Bioorg Med Chem, 2017).
pIC50: −log10 of the molar value. The source made the active and inactive calls. The rule behind the calls is not given here.

Columns and labels:
[1] = Cytotoxicity against human PC3 cells assessed as decrease in cell viability after 24 hrs by MTT assay; assay type: functional, cell-based; details: PC-3, 24 h
[2] = Cytotoxicity against human HCT116 cells assessed as decrease in cell viability after 24 hrs by MTT assay; assay type: functional, cell-based; details: HCT-116, 24 h
[3] = Cytotoxicity against human A549 cells assessed as decrease in cell viability after 24 hrs by MTT assay; assay type: functional, cell-based; details: A549, 24 h
[4] = Cytotoxicity against HFB4 cells assessed as decrease in cell viability after 24 hrs by MTT assay; assay type: toxicity, cell-based; details: human
[5] = Cell cycle arrest in human A549 cells assessed as accumulation at G0/G1 phase at 0.087 mM after 24 hrs by propidium iodide staining based flow cytometry (reference value: 33.96%); assay type: functional
[6] = Cell cycle arrest in human A549 cells assessed as accumulation at S phase at 0.087 mM after 24 hrs by propidium iodide staining based flow cytometry (reference value: 34.42%); assay type: functional
[7] = Cell cycle arrest in human A549 cells assessed as accumulation at G2/M phase at 0.087 mM after 24 hrs by propidium iodide staining based flow cytometry (reference value: 26.63%); assay type: functional
[8] = system: A549; assay: Induction of apoptosis in human A549 cells assessed as viable cells at 0.087 mM after 24 hrs by annexin V/propidium iodide double staining based flow cytometry (reference value: 98.85%); assay type: functional; details: A549, 24 h, read-out: Activity
[9] = system: A549; assay: Induction of apoptosis in human A549 cells assessed as early apoptotic cells at 0.087 mM after 24 hrs by annexin V/propidium iodide double staining based flow cytometry (reference value: 0.91%); assay type: functional
[10] = system: A549; assay: Induction of apoptosis in human A549 cells assessed as late apoptotic cells at 0.087 mM after 24 hrs by annexin V/propidium iodide double staining based flow cytometry (reference value: 0.21%); assay type: functional
[11] = system: A549; assay: Induction of apoptosis in human A549 cells assessed as necrotic cells at 0.087 mM after 24 hrs by annexin V/propidium iodide double staining based flow cytometry (reference value: 0.02%); assay type: functional
[12] = system: A549; assay: Induction of apoptosis in human A549 cells assessed as viable cells at 0.17 mM after 48 hrs by annexin V/propidium iodide double staining based flow cytometry (reference value: 98.6%); assay type: functional; details: A549, 48 h, read-out: Activity
[13] = system: A549; assay: Induction of apoptosis in human A549 cells assessed as early apoptotic cells at 0.17 mM after 48 hrs by annexin V/propidium iodide double staining based flow cytometry (reference value: 1.27%); assay type: functional
[14] = system: A549; assay: Induction of apoptosis in human A549 cells assessed as late apoptotic cells at 0.17 mM after 48 hrs by annexin V/propidium iodide double staining based flow cytometry (reference value: 0.08%); assay type: functional
[15] = system: A549; assay: Induction of apoptosis in human A549 cells assessed as necrotic cells at 0.17 mM after 48 hrs by annexin V/propidium iodide double staining based flow cytometry (reference value: 0%); assay type: functional
[16] = system: A549; assay: Induction of apoptosis in human A549 cells after 24 to 48 hrs by annexin V/propidium iodide double staining based flow cytometry; assay type: functional, cell-based
[17] = system: A549; assay: Induction of apoptosis in human A549 cells at 0.087 to 0.17 mM by annexin V/propidium iodide double staining based flow cytometry; assay type: functional, cell-based; details: TDE = time-dependent effect
[18] = system: A549; assay: Induction of apoptosis in human A549 cells assessed as increase in caspase-3 activity at 0.17 mM using Ac-DEVD-pNA as substrate after 48 hrs by colorimetric assay (reference value: 0.005); assay type: functional
[19] = system: A549; assay: Effect on p53 expression in human A549 cells assessed as ratio of p53 to beta-actin mRNA level at 0.17 mM by qRT-PCR analysis (reference value: 10.87); assay type: functional
[20] = system: A549; assay: Effect on caspase-3 expression in human A549 cells assessed as ratio of caspase-3 to beta-actin mRNA level at 0.17 mM by qRT-PCR analysis (reference value: 6.398); assay type: functional
[21] = system: A549; assay: Effect on Bcl2 expression in human A549 cells assessed as ratio of Bcl-2 to beta-actin mRNA level at 0.17 mM by qRT-PCR analysis (reference value: 15.0312); assay type: functional
[22] = system: A549; assay: Effect on Bax expression in human A549 cells assessed as ratio of Bax to beta-actin mRNA level at 0.17 mM by qRT-PCR analysis (reference value: 9.0641); assay type: functional
[23] = system: A549; assay: Induction of morphological changes in human A549 cells assessed as small membrane protrusions on cell surface at 0.087 mM after 24 hrs by atomic force microscopic imaging analysis; assay type: functional, cell-based
[24] = system: A549; assay: Induction of morphological changes in human A549 cells assessed as larger uplifted particles on cell surface at 0.087 mM after 24 hrs by atomic force microscopic imaging analysis; assay type: functional, cell-based
[25] = system: A549; assay: Induction of morphological changes in human A549 cells assessed as large uplifted structures on cell surface by measuring particle length at 0.087 mM after 24 hrs by atomic force microscopic imaging analysis (reference value: 0.161 micrometer); assay type: functional
[26] = system: A549; assay: Induction of morphological changes in human A549 cells assessed as large uplifted structures on cell surface by measuring average particle height at 0.087 mM after 24 hrs by atomic force microscopic imaging analysis (reference value: 0.144 micrometer); assay type: functional
[27] = system: A549; assay: Induction of morphological changes in human A549 cells assessed as large uplifted structures on cell surface by measuring particle width at 0.087 mM after 24 hrs by atomic force microscopic imaging analysis (reference value: 0.147 micrometer); assay type: functional
[28] = system: A549; assay: Induction of morphological changes in human A549 cells assessed as cell surface damage by measuring average roughness value at 0.087 mM after 24 hrs by atomic force microscopic imaging analysis (reference value: 1.11 micrometer); assay type: functional
[29] = system: A549; assay: Induction of morphological changes in human A549 cells assessed as cell shrinkage at 0.17 mM after 72 hrs by uranyl acetate/lead citrate staining based transmission electron microscopic imaging analysis; assay type: functional
[30] = system: A549; assay: Induction of morphological changes in human A549 cells assessed as increased cellular granularity at 0.17 mM after 72 hrs by uranyl acetate/lead citrate staining based transmission electron microscopic imaging analysis; assay type: functional, cell-based
[31] = system: A549; assay: Induction of morphological changes in human A549 cells assessed as change in mitochondrial number at 0.17 mM after 72 hrs by uranyl acetate/lead citrate staining based transmission electron microscopic imaging analysis; assay type: functional, cell-based
[32] = system: A549; assay: Induction of morphological changes in human A549 cells assessed as change in mitochondrial morphology at 0.17 mM after 72 hrs by uranyl acetate/lead citrate staining based transmission electron microscopic imaging analysis; assay type: functional, cell-based
[33] = system: A549; assay: Induction of morphological changes in human A549 cells assessed as nuclear chromatin condensation and margination at 0.17 mM after 72 hrs by uranyl acetate/lead citrate staining based transmission electron microscopic imaging analysis; assay type: functional, cell-based
[34] = system: A549; assay: Induction of morphological changes in human A549 cells assessed as formation of membrane blebs at 0.17 mM after 72 hrs by uranyl acetate/lead citrate staining based transmission electron microscopic imaging analysis; assay type: functional, cell-based
[35] = system: A549; assay: Induction of morphological changes in human A549 cells assessed as formation of apoptotic bodies at 0.17 mM after 72 hrs by uranyl acetate/lead citrate staining based transmission electron microscopic imaging analysis; assay type: functional, cell-based
[36] = system: A549; assay: Induction of morphological changes in human A549 cells assessed as reduction in nucleus volume at 0.17 mM after 72 hrs by uranyl acetate/lead citrate staining based transmission electron microscopic imaging analysis; assay type: functional, cell-based

O=c1[nH]cc(F)c(=O)[nH]1 [FLUOROURACIL]
pIC50 [1]: 2.92 | pIC50 [2]: 2.70 | pIC50 [3]: 2.54 | IC50 at 24 h [4]: > 5000 µM

O=C(Nc1ccccc1)c1nn(-c2ccccc2)/c(=N/NC(=O)C23CC4CC(CC(C4)C2)C3)s1
pIC50 [1]: 3.79 | pIC50 [2]: 3.77 | pIC50 [3]: 4.06 | IC50 at 24 h [4]: 218 µM | Activity [5]: 29.2% | Activity [6]: 68.9% | Activity [7]: 1.97% | viability at 87 µM [8]: 89% | Activity [9]: 10.36% | Activity [10]: 0.61% | Activity [11]: 0% | viability at 170 µM [12]: 83.6% | Activity [13]: 16.2% | Activity [14]: 0.18% | Activity [15]: 0% | Activity [16]: Dose-dependent effect | Activity [17]: Tde | OD [18]: 0.021 | Ratio [19]: 13.73 | Ratio [20]: 12.327 | Ratio [21]: 8.323 | Ratio [22]: 18.781 | Activity [23]: Active | Activity [24]: Active | Activity [25]: 0.142 um | Activity [26]: 0.161 um | Activity [27]: 0.134 um | Activity [28]: 1.29 um | Activity [29]: Active | Activity [30]: Active | Activity [31]: Active | Activity [32]: Active | Activity [33]: Active | Activity [34]: Active | Activity [35]: Active | Activity [36]: Active
